Test system: HBV
Assay: Activity of test compounds on viral production from HepAD38 cells (viral load by qPCR of HBV core sequence)
Type: cell-based
Conditions: Hepatitis B virus, 120 h, 5 days, supernatant HBV DNA by qPCR vs DMSO control, read-out: viral load lowering EC50 (Activity)
Method: Assay Measuring Activity of Test Compounds on Viral Production from HepAD38 Cells
HepAD38 cells grown in a T-150 flask (Corning, cat#: 430825) with Growth Medium (DMEM/F12 (1:1) (Hyclone, cat#: SH30023.02), 1× Pen/Strep (Invitrogen, cat#: 15140-122), 10% FBS (Tissue Culture Biologics, cat#: 101), 250 μg/mL G418 (Alfa Aesar, cat#: J62671), 1 μg/mL Tetracycline (Teknova, cat#: T3320)) were detached with 0.25% trypsin-EDTA (Invitrogen, cat#: 25200-056). Tetracycline-free treatment medium (15 mL DMEM/F12 (1:1) 1×Pen/step, with 2% FBS, Tet-system approved (Clontech, cat#: 631106) were then added to mix, transferred into a 50 ml conical tube (Falcon, cat#: 21008-918) and spun at 1300 rpm for 5 min. Pelleted cells were then re-suspended/washed with 50 mL of 1×DPBS (Invitrogen, cat#: 14190-136) 2 times and 50 mL treatment medium twice. HepAD38 cells were then re-suspended with 10 mL of treatment medium, syringed and counted. Wells of 96-well clear bottom TC plate (Corning, cat#: 3904) were seeded at 50,000 cells/well in 180 μL of treatment medium, and 20 μL of either 10% DMSO (Sigma, cat#: D4540) as controls or a 10× solution of test compounds in 10% DMSO in treatment media was added for a final compound concentration starting at 10 μM, and plates were incubated in 5% CO2 incubator at 37° C. for 5 days.
Subsequently viral load production was assayed by quantitative PCR (qPCR) of the HBV core sequence. PCR reaction mixture containing forward primers HBV-f 5′-CTGTGCCTTGGGTGGCTTT-3′ (IDT DNA), Reverse primers HBV-r 5′-[…]-3′ (IDT DNA), Fluorescent TaqMan™ Probes HBV-probe 5′-FAM/AGCTCCAAA/ZEN/[…]/3IABkFQ-3′ (IDT DNA), 10 μL/well of PerfeCTa® qPCR ToughMix® (Quanta Biosciences, Cat#: 95114-05K), and 6 μL/well of DEPC water (Alfa Aesar, cat#: J62087) was prepared. Four μL of supernatant was added to 16 μL of the reaction mixture in a qPCR plate (Applied Biosytems, Cat#: 4309849), sealed with a film (Applied Biosystems, Cat#: 4311971), centrifuged for a few seconds, and subsequently run on an Applied Biosystems VIIA7. The PCR mixture was incubated at 45° C. for 5 min, then 95° C. for 10 min, followed by 40 cycles of 10 seconds at 95° C. and 20 seconds at 60° C. Viral load was quantified against known HBV DNA standards by using ViiA™ 7 Software. Viral load in the supernatant from wells with treated cells were compared against viral load in supernatant from DMSO control wells (≥ 3 per plate). Cell viability assay was performed with CellTiter-Glo Luminescent Cell Viability Assay (Promega, cat#: G7573) with modification. Mixed appropriate amount of CellTiter-Glo (CTG) 1×DPBS in a 1:1 ratio, added 100 uL of the mixture to each well followed completely removal of all supernatant in each well without touching cell surface. Incubated the plate at room temperature for 10 min on an orbital shaker, and then read the plate with a plate reader (TECAN M1000 or Envision). EC50 or CC50 values were calculated through curve-fitting of the four-parameter nonlinear-logistic-regression model (GraphPad Prism or Dotmatics). CC50 values were all >10 μM.

| SMILES | EC50 [nM] |
| --- | --- |
| CN1[C@@H](C(=O)Nc2ccc(F)c(Cl)c2)C[C@@H](c2cccc(-c3ccccc3)c2)NS1(=O)=O (single isomer, unassigned) [2-Isomer II] | 5000 to 10000 |
| CN1[C@H](C(=O)Nc2ccc(F)c(Cl)c2)C[C@H](c2cccc(-c3ccccc3)c2)NS1(=O)=O (single isomer, unassigned) [2-Isomer I] | < 1000 |
| Cc1cc(-c2cccc([C@@H]3C[C@H](C(=O)Nc4ccc(F)c(Cl)c4)N(C)S(=O)(=O)N3)c2)ccn1 (single isomer, unassigned) [3-Isomer II] | 5000 to 10000 |
| Cc1cc(-c2cccc([C@H]3C[C@@H](C(=O)Nc4ccc(F)c(Cl)c4)N(C)S(=O)(=O)N3)c2)ccn1 (single isomer, unassigned) [3-Isomer I] | < 1000 |
| CN1[C@@H](C(=O)Nc2ccc(F)c(Cl)c2)C[C@@H](c2cccc(-c3ccc(C#N)cc3)c2)NS1(=O)=O (single isomer, unassigned) [4-Isomer II] | 1000 to 5000 |
| CN1[C@H](C(=O)Nc2ccc(F)c(Cl)c2)C[C@H](c2cccc(-c3ccc(C#N)cc3)c2)NS1(=O)=O (single isomer, unassigned) [4-Isomer I] | < 1000 |
| CN1[C@@H](C(=O)Nc2ccc(F)c(Cl)c2)C[C@@H](c2cccc(-c3ccc(F)cc3Cl)c2)NS1(=O)=O (single isomer, unassigned) [5-Isomer II] | 1000 to 5000 |
| CN1[C@H](C(=O)Nc2ccc(F)c(Cl)c2)C[C@H](c2cccc(-c3ccc(F)cc3Cl)c2)NS1(=O)=O (single isomer, unassigned) [5-Isomer I] | < 1000 |
| Cc1ccc(-c2cccc([C@@H]3C[C@H](C(=O)Nc4ccc(F)c(Cl)c4)N(C)S(=O)(=O)N3)c2)c(Cl)c1 (single isomer, unassigned) [6-Isomer II] | 1000 to 5000 |
| CC(C)c1ccc(-c2cccc([C@@H]3C[C@H](C(=O)Nc4ccc(F)c(Cl)c4)N(C)S(=O)(=O)N3)c2)cc1 (single isomer, unassigned) [7-Isomer II] | 1000 to 5000 |
| CC(C)c1ccc(-c2cccc([C@H]3C[C@@H](C(=O)Nc4ccc(F)c(Cl)c4)N(C)S(=O)(=O)N3)c2)cc1 (single isomer, unassigned) [7-Isomer I] | < 1000 |
| CN1[C@@H](C(=O)Nc2ccc(F)c(Cl)c2)C[C@@H](c2cccc(-c3cccc(C(F)(F)F)c3)c2)NS1(=O)=O (single isomer, unassigned) [8-Isomer II] | 5000 to 10000 |
| CN1[C@H](C(=O)Nc2ccc(F)c(Cl)c2)C[C@H](c2cccc(-c3cccc(C(F)(F)F)c3)c2)NS1(=O)=O (single isomer, unassigned) [8-Isomer I] | < 1000 |
| CN1[C@@H](C(=O)Nc2ccc(F)c(Cl)c2)C[C@@H](c2cccc(-c3ccc(Cl)c(Cl)c3)c2)NS1(=O)=O (single isomer, unassigned) [9-Isomer II] | 5000 to 10000 |
| CN1[C@H](C(=O)Nc2ccc(F)c(Cl)c2)C[C@H](c2cccc(-c3ccc(Cl)c(Cl)c3)c2)NS1(=O)=O (single isomer, unassigned) [9-Isomer I] | < 1000 |
| Cc1cc(-c2cccc([C@@H]3C[C@H](C(=O)Nc4ccc(F)c(Cl)c4)N(C)S(=O)(=O)N3)c2)ccc1F (single isomer, unassigned) [10 Isomer II] | 5000 to 10000 |
| Cc1cc(-c2cccc([C@H]3C[C@@H](C(=O)Nc4ccc(F)c(Cl)c4)N(C)S(=O)(=O)N3)c2)ccc1F (single isomer, unassigned) [10-Isomer I] | < 1000 |

| SMILES | EC50 [nM] |
| --- | --- |
| CN1[C@@H](C(=O)Nc2ccc(F)c(Cl)c2)C[C@@H](c2cccc(-c3cccc(C(=O)O)c3)c2)NS1(=O)=O (single isomer, unassigned) [19-Isomer II] | 5000 to 10000 |
| CN1[C@H](C(=O)Nc2ccc(F)c(Cl)c2)C[C@H](c2cccc(-c3cccc(C(=O)O)c3)c2)NS1(=O)=O (single isomer, unassigned) [19-Isomer I] | < 1000 |
| CN1[C@@H](C(=O)Nc2ccc(F)c(Cl)c2)C[C@@H](c2cccc(N3CCOCC3)c2)NS1(=O)=O (single isomer, unassigned) [24-Isomer II] | 5000 to 10000 |
| CN1[C@H](C(=O)Nc2ccc(F)c(Cl)c2)C[C@H](c2cccc(N3CCOCC3)c2)NS1(=O)=O (single isomer, unassigned) [24-Isomer I] | < 1000 |
| CN1CCN(c2cccc([C@@H]3C[C@H](C(=O)Nc4ccc(F)c(Cl)c4)N(C)S(=O)(=O)N3)c2)CC1 (single isomer, unassigned) [25-Isomer II] | 1000 to 5000 |
| CN1CCN(c2cccc([C@H]3C[C@@H](C(=O)Nc4ccc(F)c(Cl)c4)N(C)S(=O)(=O)N3)c2)CC1 (single isomer, unassigned) [25-Isomer I] | < 1000 |
| CN1[C@@H](C(=O)Nc2ccc(F)c(Cl)c2)C[C@@H](c2cccc(-n3ccnc3)c2)NS1(=O)=O (single isomer, unassigned) [27-Isomer II] | 5000 to 10000 |
| CN1[C@H](C(=O)Nc2ccc(F)c(Cl)c2)C[C@H](c2cccc(-n3ccnc3)c2)NS1(=O)=O (single isomer, unassigned) [27-Isomer I] | < 1000 |
| CN1C(C(=O)Nc2ccc(F)c(Cl)c2)CC(c2cccc(-c3ccccc3)c2)NS1(=O)=O (stereo not drawn) [Example 2, 5-([1,1-Biphenyl]-3-yl)-N-(3-chloro-4-fluorophenyl)-2-methyl-1,2,6-thiadiazinane-3-carboxamide 1,1-dioxide] | < 1000 |
| Cc1cc(-c2cccc(C3CC(C(=O)Nc4ccc(F)c(Cl)c4)N(C)S(=O)(=O)N3)c2)ccn1 (stereo not drawn) [Example 3, N-(3-Chloro-4-fluorophenyl)-2-methyl-5-(3-(2-methylpyridin-4-yl)phenyl)-1,2,6-thiadiazinane-3-carboxamide 1,1-dioxide] | < 1000 |
| CN1C(C(=O)Nc2ccc(F)c(Cl)c2)CC(c2cccc(-c3ccc(C#N)cc3)c2)NS1(=O)=O (stereo not drawn) [Example 4, N-(3-Chloro-4-fluorophenyl)-5-(4′-cyano-[1,1′-biphenyl]-3-yl)-2-methyl-1,2,6-thiadiazinane-3-carboxamide 1,1-dioxide] | < 1000 |
| CN1C(C(=O)Nc2ccc(F)c(Cl)c2)CC(c2cccc(-c3ccc(F)cc3Cl)c2)NS1(=O)=O (stereo not drawn) [Example 5, 5-(2′-Chloro-4′-fluoro-[1,1′-biphenyl]-3-yl)-N-(3-Chloro-4-fluorophenyl)-2-methyl-1,2,6-thiadiazinane-3-carboxamide 1,1-dioxide] | < 1000 |
| Cc1ccc(-c2cccc(C3CC(C(=O)Nc4ccc(F)c(Cl)c4)N(C)S(=O)(=O)N3)c2)c(Cl)c1 (stereo not drawn) [Example 6, 5-(2′-Chloro-4′-methyl-[1,1′-biphenyl]-3-yl)-N-(3-Chloro-4-fluorophenyl)-2-methyl-1,2,6-thiadiazinane-3-carboxamide 1,1-dioxide] | < 1000 |
| CC(C)c1ccc(-c2cccc(C3CC(C(=O)Nc4ccc(F)c(Cl)c4)N(C)S(=O)(=O)N3)c2)cc1 (stereo not drawn) [Example 7, N-(3-Chloro-4-fluorophenyl)-5-(4′-isopropyl-[1,1′-biphenyl]-3-yl)-2-methyl-1,2,6-thiadiazinane-3-carboxamide 1,1-dioxide] | < 1000 |
| CN1C(C(=O)Nc2ccc(F)c(Cl)c2)CC(c2cccc(-c3cccc(C(F)(F)F)c3)c2)NS1(=O)=O (stereo not drawn) [Example 8, N-(3-Chloro-4-fluorophenyl)-2-methyl-5-(3′-(trifluoromethyl)-[1,1′-biphenyl]-3-yl)-1,2,6-thiadiazinane-3-carboxamide 1,1-dioxide] | < 1000 |
| CN1C(C(=O)Nc2ccc(F)c(Cl)c2)CC(c2cccc(-c3ccc(Cl)c(Cl)c3)c2)NS1(=O)=O (stereo not drawn) [Example 9, N-(3-Chloro-4-fluorophenyl)-5-(3′,4′-dichloro-[1,1′-biphenyl]-3-yl)-2-methyl-1,2,6-thiadiazinane-3-carboxamide 1,1-dioxide] | 1000 to 5000 |

From patent US20220081433A1, “CYCLIC SULFAMIDE COMPOUNDS FOR TREATMENT OF HBV” (Assembly Biosciences, Inc., priority 2018, published 2022)
